Measurements taken from DBAASP.
In brackets after ≈: the same amount, converted by molar mass. Several values for one entry are separate records, joined by “and”; a condition that tells them apart may be missing. Identical values can stand only once. Each block holds one molecule with its values, some of them ahead of it.

Columns and labels:
Experiment in all cases: ≥ marks a high value that may be exact or a test limit, other limits are often not marked, values filed in µg/mL are converted to µM
[1] = system: Candida albicans ATCC 14053
[2] = system: Escherichia coli ATCC 11775
[3] = system: Micrococcus luteus ATCC 49732
[4] = system: Staphylococcus aureus ATCC 12600
[5] = system: Bacillus subtilis KCTC 1998
[6] = system: Escherichia coli ATCC 25922
[7] = system: Listeria monocytogenes ATCC 3710
[8] = system: Proteus vulgaris KCTC 2433
[9] = system: Pseudomonas aeruginosa ATCC 15692
[10] = system: Staphylococcus aureus ATCC 29213
[11] = system: Micrococcus luteus DSM 20030
[12] = system: Salmonella typhimurium TA100
[13] = system: Fusarium solani MTCC 10158
[14] = system: Candida albicans NCTC 3179
[15] = system: Staphylococcus aureus ATCC 25923
[16] = system: Escherichia coli K-12 594
[17] = system: Staphylococcus aureus ATCC 6538P
[18] = system: Staphylococcus aureus SR1550
[19] = system: Aspergillus flavus KCTC 9471
[20] = system: Aspergillus fumigatus KCTC 6145
Bacillus subtilis = system: Bacillus subtilis
Botrytis cinerea = system: Botrytis cinerea
[21] = system: Candida albicans KCTC 7270
[22] = system: Escherichia coli O157:H7 ATCC 43895
Escherichia coli = system: Escherichia coli
Fusarium verticillioides = system: Fusarium verticillioides
[23] = system: Listeria monocytogenes KCTC 3710
Proteus vulgaris = system: Proteus vulgaris
Pseudomonas aeruginosa = system: Pseudomonas aeruginosa
Saccharomyces cerevisiae = system: Saccharomyces cerevisiae
Salmonella typhimurium = system: Salmonella typhimurium
Staphylococcus aureus = system: Staphylococcus aureus
[24] = system: Staphylococcus epidermidis
Trichosporon beigelii = system: Trichosporon beigelii
[25] = system: Aspergillus brasiliensis ATCC 16404
[26] = system: Candida albicans ATCC 10231
[27] = system: Enterococcus faecalis ATCC 29212
[28] = system: Pseudomonas aeruginosa ATCC 27853
[29] = system: Aspergillus niger CECT 2694
[30] = system: Fusarium oxysporum f. sp. lycopersici ATCC 201829
[31] = system: Penicillium expansum EPS 26
[32] = system: Rhizopus stolonifer CECT 2344

Structure (SMILES): CC[C@H](C)[C@H](NC(=O)[C@H](Cc1cnc[nH]1)NC(=O)[C@H](Cc1cnc[nH]1)NC(=O)[C@@H](NC(=O)[C@H](CC(C)C)NC(=O)[C@H](Cc1cnc[nH]1)NC(=O)CNC(=O)[C@H](CCCCN)NC(=O)CNC(=O)[C@H](Cc1cnc[nH]1)NC(=O)[C@H](CCCCN)NC(=O)[C@@H](NC(=O)[C@H](CO)NC(=O)CNC(=O)[C@H](CCCCN)NC(=O)[C@H](Cc1ccccc1)NC(=O)[C@H](CCCN=C(N)N)NC(=O)[C@H](CCCCN)NC(=O)[C@@H](N)Cc1ccccc1)C(C)C)C(C)C)C(=O)NCC(=O)N[C@H](C(=O)N[C@@H](C)C(=O)N[C@@H](CC(C)C)C(N)=O)C(C)C [FKRFKGSVKHGKGHLVHHIGVAL]
MIC [5]: 4 µM (≈ 10.2 µg/mL) | MIC [6]: 2 µM and 4 µM | MIC [7]: 8 µM and 4 µM | MIC [8]: 4 µM and 8 µM | MIC [9]: ≥ 32 µM and 16 µM | MIC [10]: 8 µM and 16 µM

Structure (SMILES): CC(C)C[C@H](NC(=O)[C@H](C)NC(=O)[C@H](CCCCN)NC(=O)[C@H](CC(C)C)NC(=O)[C@H](CCCCN)NC(=O)[C@H](CCCN=C(N)N)NC(=O)[C@H](CCCN=C(N)N)NC(=O)[C@H](Cc1c[nH]c2ccccc12)NC(=O)[C@H](C)N)C(=O)N[C@@H](C)C(=O)N1CCC[C@H]1C(=O)N[C@@H](C)C(=O)N[C@@H](CCCCN)C(=O)N[C@@H](CCCCN)C(=O)N[C@@H](C)C(=O)N[C@@H](CCCCN)C(=O)N[C@H](C(=O)O)C(C)C [AWRRKLKALAPAKKAKV]
MIC [13]: 22.4 µM and ≥ 50 µM

Structure (SMILES): CC[C@H](C)[C@H](NC(=O)[C@H](CCCCN)NC(=O)[C@H](CO)NC(=O)[C@H](Cc1ccccc1)NC(=O)[C@H](CC(C)C)NC(=O)[C@H](CCCCN)NC(=O)[C@H](CCC(=O)O)NC(=O)[C@H](CC(C)C)NC(=O)[C@H](CCCN=C(N)N)NC(=O)[C@H](CCCCN)NC(=O)[C@H](Cc1ccccc1)NC(=O)[C@@H](NC(=O)[C@H](CCCCN)NC(=O)[C@H](CCCCN)NC(=O)[C@H](C)N)C(C)C)C(=O)N[C@@H](Cc1ccccc1)C(=O)N[C@@H](CC(N)=O)C(=O)N[C@@H](Cc1ccccc1)C(=O)N[C@@H](CCCCN)C(N)=O [AKKVFKRLEKLFSKIFNFK]
MIC [19]: ≥ 50 µM | MIC [20]: ≥ 35.4 µM | MIC (Bacillus subtilis): 1.56 µM (≈ 3.7 µg/mL) | MIC (Botrytis cinerea): 12.5 µM (≈ 29.6 µg/mL) | MIC [21]: 25 µM (≈ 59.3 µg/mL) | MIC [22]: 6.25 µM (≈ 14.8 µg/mL) | MIC (Escherichia coli): 3.13 µM (≈ 7.42 µg/mL) | MIC (Fusarium verticillioides): 12.5 µM (≈ 29.6 µg/mL) | MIC [23]: 0.78 µM (≈ 1.85 µg/mL) | MIC (Proteus vulgaris): 3.13 µM (≈ 7.42 µg/mL) | MIC (Pseudomonas aeruginosa): 6.25 µM (≈ 14.8 µg/mL) | MIC (Saccharomyces cerevisiae): 25 µM (≈ 59.3 µg/mL) | MIC (Salmonella typhimurium): 0.39 µM (≈ 0.925 µg/mL) | MIC (Staphylococcus aureus): 3.13 µM (≈ 7.42 µg/mL) | MIC [24]: 6.25 µM (≈ 14.8 µg/mL) | MIC (Trichosporon beigelii): 3.13 µM (≈ 7.42 µg/mL)

Structure (SMILES): CC[C@H](C)[C@H](NC(=O)[C@H](CCCCN)NC(=O)CNC(=O)[C@@H]1CCCN1C(=O)[C@H](Cc1cnc[nH]1)NC(=O)[C@H](CC(C)C)NC(=O)[C@H](CC(C)C)NC(=O)[C@H](Cc1ccc(O)cc1)NC(=O)[C@H](CS)NC(=O)CN)C(=O)N[C@@H](CS)C(=O)N[C@@H](Cc1ccc(O)cc1)C(=O)O [GCYLLHPGKICY]
MIC [25]: ≥ 64 µM | MIC [26]: > 64 µM | MIC [27]: > 64 µM | MIC [6]: > 64 µM | MIC [28]: > 64 µM | MIC [10]: > 64 µM

Second part, the molecule after the results:

MIC [1]: ≥ 144 µM | MIC [2]: ≥ 193 µM | MIC [3]: ≥ 64 µM | MIC [4]: ≥ 193 µM
Structure (SMILES): CSCC[C@H](NC(=O)[C@@H](NC(=O)[C@@H](N)[C@@H](C)O)[C@@H](C)O)C(=O)N1CCC[C@H]1C(=O)N[C@@H](CC(C)C)C(=O)N[C@@H](Cc1c[nH]c2ccccc12)C(=O)O [TTMPLW]

MIC [11]: 13.5 µM (≈ 40.8 µg/mL) | MIC [12]: 12.6 µM (≈ 38.3 µg/mL)
Structure (SMILES): CC(C)C[C@H](NC(=O)CNC(=O)[C@H](CCCCN)NC(=O)[C@H](CS)NC(=O)[C@@H](NC(=O)[C@H](CCCN=C(N)N)NC(=O)[C@H](CCCCN)NC(=O)[C@H](CC(N)=O)NC(=O)[C@H](CC(N)=O)NC(=O)[C@H](CCC(N)=O)NC(=O)[C@H](CCCN=C(N)N)NC(=O)[C@@H](NC(=O)[C@H](CS)NC(=O)[C@@H](N)CCCCN)C(C)C)C(C)C)C(=O)N[C@@H](CCCN=C(N)N)C(=O)N[C@@H](CCCCN)C(=O)N[C@@H](CCCN=C(N)N)C(=O)N[C@@H](CC(C)C)C(=O)N[C@@H](CCCN=C(N)N)C(=O)N[C@@H](CCCCN)C(=O)N[C@@H](Cc1ccccc1)C(=O)N[C@@H](CCCN=C(N)N)C(=O)N[C@@H](CC(N)=O)C(=O)N[C@@H](CCCCN)C(N)=O [KCVRQNNKRVCKGLRKRLRKFRNK]

MIC [14]: 24.8 µM (≈ 72 µg/mL) | MIC [6]: 1.97 µM (≈ 5.7 µg/mL) | MIC [15]: 1.66 µM (≈ 4.8 µg/mL)
Structure (SMILES): CC[C@H](C)[C@H](NC(=O)[C@H](CCCCN)NC(=O)[C@@H](NC(=O)[C@@H](NC(=O)[C@H](C)NC(=O)[C@@H]1CCCN1C(=O)[C@H](CC(C)C)NC(=O)[C@H](Cc1c[nH]c2ccccc12)NC(=O)[C@@H](N)[C@@H](C)O)C(C)C)[C@@H](C)CC)C(=O)N[C@@H](CCC(N)=O)C(=O)N[C@@H](C)C(=O)N[C@@H](Cc1cnc[nH]1)C(=O)N[C@@H](Cc1c[nH]c2ccccc12)C(=O)N[C@@H](CCCN=C(N)N)C(=O)NCC(=O)N[C@@H](Cc1ccc(O)cc1)C(=O)N[C@@H](CCCN=C(N)N)C(=O)N[C@@H](CCC(N)=O)C(=O)N[C@@H](CCCN=C(N)N)C(=O)N[C@@H](CCCCN)C(=O)N[C@H](C(=O)N[C@@H](Cc1ccc(O)cc1)C(=O)N[C@@H](CC(C)C)C(=O)O)[C@@H](C)CC [TWLPAVIKIQAHWRGYRQRKIYL]

MIC [16]: 25.8 µM (≈ 35 µg/mL) | MIC [17]: 11.8 µM (≈ 16 µg/mL) | MIC [18]: 25.8 µM (≈ 35 µg/mL)
Structure (SMILES): CC(C)C[C@H](NC(=O)[C@H](Cc1cnc[nH]1)NC(=O)[C@H](CC(C)C)NC(=O)[C@H](CC(C)C)NC(=O)[C@H](CC(C)C)NC(=O)[C@H](CC(C)C)NC(=O)[C@H](CC(C)C)NC(=O)[C@H](Cc1cnc[nH]1)NC(=O)[C@H](CC(C)C)NC(=O)[C@@H](N)Cc1cnc[nH]1)C(=O)N[C@@H](Cc1cnc[nH]1)C(N)=O [HLHLLLLLHLH]

MIC [29]: 22.4 µM (≈ 31.7 µg/mL) | MIC [30]: 22.4 µM (≈ 31.7 µg/mL) | MIC [31]: ≥ 100 µM | MIC [32]: ≥ 100 µM
Structure (SMILES): CC[C@H](C)[C@H](NC(=O)[C@H](CCCCN)NC(=O)[C@H](CCCCN)NC(=O)[C@H](Cc1ccccc1)NC(=O)[C@H](CC(C)C)NC(=O)[C@H](CCCCN)NC(=O)[C@@H](N)Cc1c[nH]c2ccccc12)C(=O)N[C@@H](CC(C)C)C(=O)N[C@@H](CCCCN)C(=O)N[C@H](C(=O)N[C@@H](CC(C)C)C(=O)O)C(C)C [WKLFKKILKVL]
